Experimental data: patent publication US7928136B2, “Substituted 2-indolinone as PTK inhibitors containing a zinc binding moiety” (Curis, Inc., priority 2006, dated 2011)

What was measured:
HDAC = HDAC fluorimetric assay kit (AK-500, Biomol), HeLa nuclear extract; format: biochemical; conditions: Fluor de Lys substrate
Method: HDAC inhibitors were screened using an HDAC fluorimetric assay kit (AK-500, Biomol, Plymouth Meeting, Pa.). […] Each assay was setup as follows: Defrosted all kit components and kept on ice until use. Diluted HeLa nuclear extract 1:29 in Assay Buffer (50 mM Tris/Cl, pH 8.0, 137 mM NaCl, 2.7 mM KCl, 1 mM MgCl2). Prepared dilutions of Trichostatin A (TSA, positive control) and tested compounds in assay buffer (5× of final concentration). Diluted Fluor de Lys™ Substrate in assay buffer to 100 uM (50 fold=2× final). Diluted Fluor de Lys™ developer concentrate 20-fold (e.g. 50 μl plus 950 μl Assay Buffer) in cold assay buffer. Second, diluted the 0.2 mM Trichostatin A 100-fold in the 1× Developer (e.g. 10 μl in 1 ml; final Trichostatin A concentration in the 1× Developer=2 μM; final concentration after addition to HDAC/Substrate reaction=1 μM). Added Assay buffer, diluted trichostatin A or test inhibitor to appropriate wells of the microtiter plate. Added diluted HeLa extract or other HDAC sample to all wells except for negative controls. Allowed diluted Fluor de Lys™ Substrate and the samples in the microtiter plate to equilibrate to assay temperature (e.g. 25 or 37° C. Initiated HDAC reactions by adding diluted substrate (25 μl) to each well and mixing thoroughly. Allowed HDAC reactions to proceed for 1 hour and then stopped them by addition of Fluor de Lys™ Developer ([…]). Incubated plate at room temperature (25° C.) for 10-15 min. Read samples in a microtiter-plate reading fluorimeter capable of excitation at a wavelength in the range 350-380 nm and detection of emitted light in the range 440-460 nm.
(§1) The following TABLE B lists compounds representative of the invention and their activity in HDAC, VEGFR2 and PDGFR assays.

VEGFR2 = target: T1, VEGFR2 (Homo sapiens, UniProt P35968); assay: HTScan Receptor Kinase Assay, VEGFR2 tyrosine kinase; format: biochemical; conditions: human VEGFR2 kinase domain, 200 μM ATP
T1 construct: GST (N); HIS6 (N); Thrombin cleavage site (N); purchased Cell Signaling Technologies; host or cells: baculovirus expression system
Method: (§2) Immediately transfer enzyme from −80° C. to ice. Allowed enzyme to thaw on ice. […] Returned immediately to ice. […] Incubated reaction plate at room temperature for 30 minutes. […] Added 100 μl/well primary antibody. Incubated at room temperature for 60 minutes. […] Added 100 μl/well diluted antibody. Incubated at room temperature for 30 minutes. […] Incubated at room temperature for 5 minutes.
as §1

PDGFR-beta = target: T2, PDGFR-beta (Homo sapiens, UniProt P09619); assay: HTScan Receptor Kinase Assay, PDGFR-beta tyrosine kinase; format: biochemical; conditions: human PDGFR-beta kinase fragment, 200 μM ATP
T2 construct: GST (N); HIS6 (N); Thrombin cleavage site (N); purchased Cell Signaling Technologies; host or cells: baculovirus expression system
Method: as §2, §1

T1 sequence (P35968 807-1356 limits assumed): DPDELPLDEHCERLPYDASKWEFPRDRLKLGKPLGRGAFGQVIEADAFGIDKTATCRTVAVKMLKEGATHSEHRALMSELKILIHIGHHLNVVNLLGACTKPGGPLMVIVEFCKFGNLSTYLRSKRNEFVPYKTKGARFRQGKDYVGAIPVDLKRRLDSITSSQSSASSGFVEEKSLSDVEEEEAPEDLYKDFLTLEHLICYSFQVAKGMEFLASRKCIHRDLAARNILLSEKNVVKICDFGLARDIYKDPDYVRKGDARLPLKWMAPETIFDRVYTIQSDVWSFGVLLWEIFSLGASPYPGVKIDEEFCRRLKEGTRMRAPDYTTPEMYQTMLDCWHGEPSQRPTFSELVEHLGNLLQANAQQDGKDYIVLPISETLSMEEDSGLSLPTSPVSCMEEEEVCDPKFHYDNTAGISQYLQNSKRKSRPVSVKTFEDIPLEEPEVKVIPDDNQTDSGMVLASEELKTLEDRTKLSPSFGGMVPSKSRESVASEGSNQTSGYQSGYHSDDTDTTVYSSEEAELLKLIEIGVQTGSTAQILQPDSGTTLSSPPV
T2 sequence (P09619 561-1106): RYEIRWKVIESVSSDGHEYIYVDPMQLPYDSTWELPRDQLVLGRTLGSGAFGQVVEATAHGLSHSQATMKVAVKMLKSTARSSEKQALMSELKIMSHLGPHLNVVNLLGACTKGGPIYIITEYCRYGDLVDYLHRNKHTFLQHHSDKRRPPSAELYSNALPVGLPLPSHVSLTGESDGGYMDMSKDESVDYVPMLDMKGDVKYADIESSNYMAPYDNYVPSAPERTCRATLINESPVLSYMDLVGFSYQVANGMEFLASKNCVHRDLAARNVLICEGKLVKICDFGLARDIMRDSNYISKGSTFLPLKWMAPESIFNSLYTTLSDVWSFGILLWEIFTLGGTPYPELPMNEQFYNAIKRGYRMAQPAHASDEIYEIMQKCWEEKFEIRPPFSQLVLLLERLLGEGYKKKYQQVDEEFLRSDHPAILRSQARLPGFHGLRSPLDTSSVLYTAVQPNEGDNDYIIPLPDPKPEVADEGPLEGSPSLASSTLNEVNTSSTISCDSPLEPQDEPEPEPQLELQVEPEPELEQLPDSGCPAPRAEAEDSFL

Row | SMILES | IC50 (HDAC) | IC50 (VEGFR2) | IC50 (PDGFR-beta) | melting point
1 | Cc1[nH]c(/C=C2\C(=O)Nc3ccc(F)cc32)c(C)c1C(=O)NCCCCCCC(=O)NO [Compound 15, (Z)-5-((5-Fluoro-2-oxoindolin-3-ylidene)methyl)-N-(7-(hydroxyamino)-7-oxoheptyl)-2,4-dimethyl-1H-pyrrole-3-carboxamide] | < 100 nM | < 100 nM | 100 to 1000 nM | 221 °C (dec.)
2 | Cc1[nH]c(/C=C2\C(=O)Nc3ccc(F)cc32)c(C)c1C(=O)NCCOc1ccc(C(=O)NO)cc1 [Compound 8, (Z)-5-((5-fluoro-2-oxoindolin-3-ylidene)methyl)-N-(2-(4-(hydroxycarbamoyl)phenoxy)ethyl)-2,4-dimethyl-1H-pyrrole-3-carboxamide] | 100 to 1000 nM | – | – | –
3 | Cc1[nH]c(/C=C2\C(=O)Nc3ccc(F)cc32)c(C)c1C(=O)NCCCCCC(=O)NO [Compound 4, N-(5-(hydroxycarbamoyl)pentyl)-5-((Z)-(5-fluoro-2-oxoindolin-3-ylidene)methyl)-2,4-dimethyl-1H-pyrrole-3-carboxamide] | 100 to 1000 nM | < 100 nM | < 100 nM | 209.7 °C (dec.)
4 | Cc1[nH]c(/C=C2\C(=O)Nc3ccc(F)cc32)c(C)c1C(=O)NCCCC(=O)NO [Compound 3, N-(3-(hydroxycarbamoyl)propyl)-5-((Z)-(5-fluoro-2-oxoindolin-3-ylidene)methyl)-2,4-dimethyl-1H-pyrrole-3-carboxamide] | 1000 to 10000 nM | < 100 nM | < 100 nM | –
5 | Cc1[nH]c(/C=C2\C(=O)Nc3ccc(F)cc32)c(C)c1C(=O)NCCC(=O)NO [Compound 2, N-(2-(hydroxycarbamoyl)ethyl)-5-((Z)-(5-fluoro-2-oxoindolin-3-ylidene)methyl)-2,4-dimethyl-1H-pyrrole-3-carboxamide] | 100 to 1000 nM | < 100 nM | 100 to 1000 nM | –
6 | Cc1[nH]c(/C=C2\C(=O)Nc3ccc(F)cc32)c(C)c1C(=O)NCCOc1ccc(/C=C/C(=O)NO)cc1 [Compound 14, 5-((Z)-(5-fluoro-2-oxoindolin-3-ylidene)methyl)-N-(2-(4-((E)-3-(hydroxyamino)-3-oxoprop-1-enyl)phenoxy)ethyl)-2,4-dimethyl-1H-pyrrole-3-carboxamide] | 100 to 1000 nM | < 100 nM | – | –
7 | Cc1[nH]c(/C=C2\C(=O)Nc3ccc(F)cc32)c(C)c1C(=O)NCCCCCCCC(=O)NO [Compound 16, (Z)-5-((5-Fluoro-2-oxoindolin-3-ylidene)methyl)-N-(8-(hydroxyamino)-8-oxooctyl)-2,4-dimethyl-1H-pyrrole-3-carboxamide] | < 100 nM | < 100 nM | 100 to 1000 nM | 213.7 °C (dec.)
8 | Cc1[nH]c(/C=C2\C(=O)Nc3ccc(F)cc32)c(C)c1C(=O)NCCCCCC(=O)N(C)O [Compound 9, (Z)-5-((5-fluoro-2-oxoindolin-3-ylidene)methyl)-N-(6-(hydroxy(methyl)amino)-6-oxohexyl)-2,4-dimethyl-1H-pyrrole-3-carboxamide] | > 10000 nM | < 100 nM | – | –
